ChEMBL document CHEMBL1909046, “DrugMatrix in vitro pharmacology data”
pIC50, pKi: −log10 of the molar value.

How the values were obtained:
Cytochrome P450 2D6 = Cytochrome P450 2D6 (Homo sapiens, UniProt P10635); conditions: bti-tn-5b1-4; note: in other assays of this panel Not Active means under 50% inhibition at 10 µM
Cytochrome P450 1A2 = molecular target: T1, Cytochrome P450 1A2 (Homo sapiens, UniProt P05177); conditions: bti-tn-5b1-4; note: in other assays of this panel Not Active means under 50% inhibition at 10 µM
T1 sequence (P05177 whole entry): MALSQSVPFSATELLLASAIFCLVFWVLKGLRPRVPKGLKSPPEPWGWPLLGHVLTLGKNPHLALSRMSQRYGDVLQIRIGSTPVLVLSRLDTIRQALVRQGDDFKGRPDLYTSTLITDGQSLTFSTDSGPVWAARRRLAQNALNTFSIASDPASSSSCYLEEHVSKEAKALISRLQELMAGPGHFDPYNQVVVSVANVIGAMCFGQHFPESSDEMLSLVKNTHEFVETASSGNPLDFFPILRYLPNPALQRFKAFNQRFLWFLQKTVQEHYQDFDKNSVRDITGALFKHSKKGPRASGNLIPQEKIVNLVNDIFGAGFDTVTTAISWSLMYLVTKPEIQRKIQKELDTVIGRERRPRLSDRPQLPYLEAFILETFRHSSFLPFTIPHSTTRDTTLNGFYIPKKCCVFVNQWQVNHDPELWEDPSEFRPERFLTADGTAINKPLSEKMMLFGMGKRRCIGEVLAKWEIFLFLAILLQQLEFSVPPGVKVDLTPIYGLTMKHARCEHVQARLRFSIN

Estrogen receptor = molecular target: T2, Estrogen receptor (Homo sapiens, UniProt P03372); conditions: sf9; note: in other assays of this panel Not Active means under 50% inhibition at 10 µM
T2 sequence (P03372 whole entry): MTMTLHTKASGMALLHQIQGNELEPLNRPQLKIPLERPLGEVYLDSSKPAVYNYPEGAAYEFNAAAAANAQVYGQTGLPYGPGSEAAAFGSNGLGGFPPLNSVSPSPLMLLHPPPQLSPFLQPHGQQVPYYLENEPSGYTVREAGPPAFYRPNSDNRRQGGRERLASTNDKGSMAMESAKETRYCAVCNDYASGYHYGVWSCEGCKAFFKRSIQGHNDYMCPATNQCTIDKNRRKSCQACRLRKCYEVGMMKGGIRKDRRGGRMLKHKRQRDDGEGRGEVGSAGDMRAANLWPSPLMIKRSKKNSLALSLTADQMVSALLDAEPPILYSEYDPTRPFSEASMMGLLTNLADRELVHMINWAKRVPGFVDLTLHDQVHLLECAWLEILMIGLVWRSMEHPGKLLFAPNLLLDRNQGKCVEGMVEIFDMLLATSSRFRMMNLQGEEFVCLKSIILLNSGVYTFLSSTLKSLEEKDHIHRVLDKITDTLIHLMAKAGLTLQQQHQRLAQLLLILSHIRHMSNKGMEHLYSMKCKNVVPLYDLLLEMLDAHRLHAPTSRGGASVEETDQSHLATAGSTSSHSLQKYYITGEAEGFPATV

Glucocorticoid receptor = molecular target: T3, Glucocorticoid receptor (Homo sapiens, UniProt P04150); conditions: hela s3; note: in other assays of this panel Not Active means under 50% inhibition at 10 µM
T3 sequence (P04150 whole entry): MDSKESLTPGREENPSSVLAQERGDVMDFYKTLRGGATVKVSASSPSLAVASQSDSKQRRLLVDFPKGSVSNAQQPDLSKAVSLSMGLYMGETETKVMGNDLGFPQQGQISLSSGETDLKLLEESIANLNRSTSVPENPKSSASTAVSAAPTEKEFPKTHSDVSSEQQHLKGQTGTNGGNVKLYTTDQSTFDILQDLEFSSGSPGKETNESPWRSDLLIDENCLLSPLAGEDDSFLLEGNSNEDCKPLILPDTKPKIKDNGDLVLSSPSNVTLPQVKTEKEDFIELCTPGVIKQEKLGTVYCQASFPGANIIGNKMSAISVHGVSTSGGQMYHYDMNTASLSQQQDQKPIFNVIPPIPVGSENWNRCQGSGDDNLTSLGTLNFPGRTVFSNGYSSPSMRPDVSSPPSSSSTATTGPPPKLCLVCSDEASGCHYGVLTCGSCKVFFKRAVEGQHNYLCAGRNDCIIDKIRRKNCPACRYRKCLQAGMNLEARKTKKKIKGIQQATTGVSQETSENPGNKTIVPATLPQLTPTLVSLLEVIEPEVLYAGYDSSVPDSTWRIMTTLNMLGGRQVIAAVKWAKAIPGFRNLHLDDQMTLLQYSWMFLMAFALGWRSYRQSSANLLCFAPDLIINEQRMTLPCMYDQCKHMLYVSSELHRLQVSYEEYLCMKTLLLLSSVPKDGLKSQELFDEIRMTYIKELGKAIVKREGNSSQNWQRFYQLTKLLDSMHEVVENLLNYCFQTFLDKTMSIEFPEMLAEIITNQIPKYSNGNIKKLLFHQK

[1] = molecular target: Voltage-gated inwardly rectifying potassium channel KCNH2 (Homo sapiens, UniProt Q12809); conditions: hek293; note: in other assays of this panel Not Active means under 50% inhibition at 10 µM
Estrogen receptor beta = Estrogen receptor beta (Homo sapiens, UniProt Q92731); conditions: sf9; note: in other assays of this panel Not Active means under 50% inhibition at 10 µM
[2] = molecular target: T4, Alpha-1D adrenergic receptor (Homo sapiens, UniProt P25100); type: cell membranes, HEK293, Membrane; conditions: hek293; note: in other assays of this panel Not Active means under 50% inhibition at 10 µM
T4 sequence (P25100 whole entry): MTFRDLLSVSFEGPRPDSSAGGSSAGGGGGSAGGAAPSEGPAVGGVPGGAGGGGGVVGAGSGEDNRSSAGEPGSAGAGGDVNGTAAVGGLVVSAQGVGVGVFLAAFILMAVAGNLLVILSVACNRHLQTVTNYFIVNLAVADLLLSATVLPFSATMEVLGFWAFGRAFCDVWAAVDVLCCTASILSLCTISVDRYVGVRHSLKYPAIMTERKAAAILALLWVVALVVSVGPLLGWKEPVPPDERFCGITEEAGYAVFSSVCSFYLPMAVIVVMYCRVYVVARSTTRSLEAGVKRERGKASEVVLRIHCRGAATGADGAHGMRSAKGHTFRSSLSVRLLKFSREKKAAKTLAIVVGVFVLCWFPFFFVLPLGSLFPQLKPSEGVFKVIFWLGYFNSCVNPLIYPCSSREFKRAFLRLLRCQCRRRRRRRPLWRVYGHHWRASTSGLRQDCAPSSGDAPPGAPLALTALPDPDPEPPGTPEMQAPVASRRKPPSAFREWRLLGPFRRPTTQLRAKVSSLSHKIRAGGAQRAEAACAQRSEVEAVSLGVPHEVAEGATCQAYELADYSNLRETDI

Cytochrome P450 3A4 = Cytochrome P450 3A4 (Homo sapiens, UniProt P08684); conditions: bti-tn-5b1-4; note: in other assays of this panel Not Active means under 50% inhibition at 10 µM
[3] = molecular target: Sodium-dependent noradrenaline transporter (Homo sapiens, UniProt P23975); test: DRUGMATRIX: Norepinephrine Transporter radioligand binding (ligand: [125I] RTI-55); type: cell membranes, MDCK, Membrane; conditions: mdck, Not Active = under 50% inhibition at 10 µM
Cytochrome P450 2C9 = Cytochrome P450 2C9 (Homo sapiens, UniProt P11712); conditions: bti-tn-5b1-4; note: in other assays of this panel Not Active means under 50% inhibition at 10 µM
Chain of Cytochrome P450 2C9 (P11712 whole entry): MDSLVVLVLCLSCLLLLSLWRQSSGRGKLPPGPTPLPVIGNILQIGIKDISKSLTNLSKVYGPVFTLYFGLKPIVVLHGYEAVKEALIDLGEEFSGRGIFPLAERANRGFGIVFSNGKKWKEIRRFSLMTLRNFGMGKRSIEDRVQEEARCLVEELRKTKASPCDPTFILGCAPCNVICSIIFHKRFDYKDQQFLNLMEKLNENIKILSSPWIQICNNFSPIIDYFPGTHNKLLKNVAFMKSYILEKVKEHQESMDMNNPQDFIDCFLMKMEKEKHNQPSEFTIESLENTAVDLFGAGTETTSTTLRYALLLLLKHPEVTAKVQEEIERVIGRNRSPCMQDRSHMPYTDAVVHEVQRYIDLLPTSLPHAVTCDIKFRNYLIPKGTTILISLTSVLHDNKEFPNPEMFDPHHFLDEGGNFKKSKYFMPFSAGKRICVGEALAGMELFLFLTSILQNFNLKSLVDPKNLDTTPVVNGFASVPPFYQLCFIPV

Chain of Sodium-dependent noradrenaline transporter (P23975 whole entry): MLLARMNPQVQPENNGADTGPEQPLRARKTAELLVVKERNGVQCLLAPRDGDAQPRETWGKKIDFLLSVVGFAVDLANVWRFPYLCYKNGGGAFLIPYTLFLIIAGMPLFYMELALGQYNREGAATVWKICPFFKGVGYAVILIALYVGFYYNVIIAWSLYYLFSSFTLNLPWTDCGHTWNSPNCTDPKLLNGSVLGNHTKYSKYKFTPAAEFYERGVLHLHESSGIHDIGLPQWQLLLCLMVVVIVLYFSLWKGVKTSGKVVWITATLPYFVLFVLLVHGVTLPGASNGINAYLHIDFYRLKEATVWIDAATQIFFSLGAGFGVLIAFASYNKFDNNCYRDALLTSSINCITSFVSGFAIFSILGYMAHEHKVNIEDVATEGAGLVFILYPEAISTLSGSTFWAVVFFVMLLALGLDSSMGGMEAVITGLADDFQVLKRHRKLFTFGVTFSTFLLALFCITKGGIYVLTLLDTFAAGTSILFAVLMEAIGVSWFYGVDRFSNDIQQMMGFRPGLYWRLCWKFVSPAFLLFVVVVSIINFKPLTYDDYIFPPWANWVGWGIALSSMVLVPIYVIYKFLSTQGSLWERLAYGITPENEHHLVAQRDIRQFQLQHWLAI
Chain of Estrogen receptor beta (Q92731 whole entry): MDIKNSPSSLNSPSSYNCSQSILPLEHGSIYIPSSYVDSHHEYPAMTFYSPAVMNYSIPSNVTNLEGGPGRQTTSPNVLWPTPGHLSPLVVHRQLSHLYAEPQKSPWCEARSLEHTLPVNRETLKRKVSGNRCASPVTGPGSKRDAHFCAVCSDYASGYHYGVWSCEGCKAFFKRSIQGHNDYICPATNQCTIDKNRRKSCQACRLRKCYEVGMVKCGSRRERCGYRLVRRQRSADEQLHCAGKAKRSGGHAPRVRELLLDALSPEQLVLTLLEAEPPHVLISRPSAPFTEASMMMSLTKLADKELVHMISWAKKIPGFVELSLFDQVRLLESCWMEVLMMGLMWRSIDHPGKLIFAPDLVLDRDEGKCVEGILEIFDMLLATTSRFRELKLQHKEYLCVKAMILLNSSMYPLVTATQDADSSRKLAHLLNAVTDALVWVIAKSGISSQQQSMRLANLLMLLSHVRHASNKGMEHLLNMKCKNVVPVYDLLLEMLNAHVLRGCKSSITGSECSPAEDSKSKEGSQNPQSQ
Chain of Cytochrome P450 3A4 (P08684 whole entry): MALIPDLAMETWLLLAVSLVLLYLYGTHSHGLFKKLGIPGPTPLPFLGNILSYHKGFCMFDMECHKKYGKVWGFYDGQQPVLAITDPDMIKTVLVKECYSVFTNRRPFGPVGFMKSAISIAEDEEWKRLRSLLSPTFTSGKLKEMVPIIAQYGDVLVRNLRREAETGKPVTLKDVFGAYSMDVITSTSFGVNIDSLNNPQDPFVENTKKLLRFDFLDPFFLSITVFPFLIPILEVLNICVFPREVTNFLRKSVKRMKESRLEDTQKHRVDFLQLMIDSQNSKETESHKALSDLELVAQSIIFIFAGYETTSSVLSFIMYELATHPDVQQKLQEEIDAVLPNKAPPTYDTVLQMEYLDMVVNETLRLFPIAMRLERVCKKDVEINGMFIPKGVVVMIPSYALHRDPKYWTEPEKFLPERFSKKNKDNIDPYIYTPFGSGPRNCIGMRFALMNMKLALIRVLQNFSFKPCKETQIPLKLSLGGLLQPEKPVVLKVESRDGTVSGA
Chain of Cytochrome P450 2D6 (P10635 whole entry): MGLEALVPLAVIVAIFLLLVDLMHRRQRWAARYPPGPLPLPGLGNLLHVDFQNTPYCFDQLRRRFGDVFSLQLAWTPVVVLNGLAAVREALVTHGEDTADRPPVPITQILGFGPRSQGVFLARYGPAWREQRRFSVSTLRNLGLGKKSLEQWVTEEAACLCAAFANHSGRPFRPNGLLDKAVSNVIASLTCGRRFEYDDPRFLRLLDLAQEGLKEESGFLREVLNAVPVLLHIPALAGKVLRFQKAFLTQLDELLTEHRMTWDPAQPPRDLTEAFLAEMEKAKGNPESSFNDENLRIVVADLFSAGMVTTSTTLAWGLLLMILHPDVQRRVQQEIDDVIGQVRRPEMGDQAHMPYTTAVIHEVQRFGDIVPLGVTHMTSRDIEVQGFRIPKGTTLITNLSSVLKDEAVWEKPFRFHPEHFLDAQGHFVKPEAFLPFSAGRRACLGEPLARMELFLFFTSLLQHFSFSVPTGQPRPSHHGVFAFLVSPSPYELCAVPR
Chain of Voltage-gated inwardly rectifying potassium channel KCNH2 (Q12809 whole entry): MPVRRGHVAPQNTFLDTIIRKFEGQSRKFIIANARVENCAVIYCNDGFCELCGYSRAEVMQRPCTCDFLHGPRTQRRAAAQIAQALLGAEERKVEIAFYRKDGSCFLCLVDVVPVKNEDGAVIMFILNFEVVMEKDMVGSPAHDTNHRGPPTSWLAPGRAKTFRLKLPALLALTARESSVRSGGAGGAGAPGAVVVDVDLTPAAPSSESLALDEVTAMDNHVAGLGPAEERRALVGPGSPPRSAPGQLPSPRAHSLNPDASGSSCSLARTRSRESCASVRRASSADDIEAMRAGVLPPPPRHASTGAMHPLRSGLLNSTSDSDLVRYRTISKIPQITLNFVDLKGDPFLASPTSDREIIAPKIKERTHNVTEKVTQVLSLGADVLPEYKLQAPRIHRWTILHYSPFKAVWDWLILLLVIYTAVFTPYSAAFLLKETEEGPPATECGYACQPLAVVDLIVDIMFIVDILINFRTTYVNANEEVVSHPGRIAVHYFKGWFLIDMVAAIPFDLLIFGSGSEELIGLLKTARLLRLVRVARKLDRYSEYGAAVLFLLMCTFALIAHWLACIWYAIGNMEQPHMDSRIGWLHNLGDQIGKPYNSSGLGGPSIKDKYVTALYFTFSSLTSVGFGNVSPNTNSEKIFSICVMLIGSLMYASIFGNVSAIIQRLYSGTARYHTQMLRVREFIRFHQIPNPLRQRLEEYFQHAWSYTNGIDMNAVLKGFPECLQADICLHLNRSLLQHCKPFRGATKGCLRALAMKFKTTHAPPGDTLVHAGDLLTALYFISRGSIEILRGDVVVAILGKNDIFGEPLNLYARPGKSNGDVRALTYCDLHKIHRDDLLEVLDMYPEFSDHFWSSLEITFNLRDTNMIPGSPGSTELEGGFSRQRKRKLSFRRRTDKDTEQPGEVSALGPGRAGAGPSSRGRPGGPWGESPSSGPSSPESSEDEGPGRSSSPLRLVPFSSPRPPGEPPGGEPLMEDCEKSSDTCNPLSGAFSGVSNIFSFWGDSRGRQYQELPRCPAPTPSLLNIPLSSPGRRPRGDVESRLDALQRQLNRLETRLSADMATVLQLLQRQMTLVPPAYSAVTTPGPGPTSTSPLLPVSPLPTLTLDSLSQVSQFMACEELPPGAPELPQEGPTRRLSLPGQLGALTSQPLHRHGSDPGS

| Compound | IC50 (Cytochrome P450 2D6) | Ki (Cytochrome P450 2D6) | IC50 (Cytochrome P450 1A2) | Ki (Cytochrome P450 1A2) | IC50 (Estrogen receptor) | IC50 (Glucocorticoid receptor) | IC50 [1] | Ki [1] | IC50 (Estrogen receptor beta) | IC50 [2] | IC50 (Cytochrome P450 3A4) | Ki (Cytochrome P450 3A4) | IC50 [3] | IC50 (Cytochrome P450 2C9) | Ki (Cytochrome P450 2C9) | also measured |
| --- | --- | --- | --- | --- | --- | --- | --- | --- | --- | --- | --- | --- | --- | --- | --- | --- |
| CCC[C@@H]1C[C@@H](C(=O)N[C@@H]([C@H]2O[C@H](SC)[C@H](O)[C@@H](O)[C@H]2O)[C@@H](C)O)N(C)C1 [LINCOMYCIN] | Not Active | Not Active | Not Active | Not Active | Not Active | Not Active | Not Active | Not Active | Not Active | Not Active | Not Active | Not Active | Not Active | Not Active | Not Active | – |
| COc1c(C)c2c(c(O)c1C/C=C(\C)CCC(=O)OCCN1CCOCC1)C(=O)OC2 [MYCOPHENOLATE MOFETIL] | Not Active | Not Active | Not Active | Not Active | Not Active | Not Active | Not Active | Not Active | Not Active | Not Active | Not Active | Not Active | Not Active | Not Active | Not Active | – |
| O=[N+]([O-])c1cc([As](=O)(O)O)ccc1O [ROXARSONE] | Not Active | Not Active | Not Active | Not Active | Not Active | Not Active | Not Active | Not Active | Not Active | Not Active | Not Active | Not Active | Not Active | Not Active | Not Active | Ki (Estrogen receptor): Not Active; Ki (Glucocorticoid receptor): Not Active; Ki (Estrogen receptor beta): Not Active; Ki [2]: Not Active; Ki [3]: Not Active |
| NC(=O)c1ccccc1O [SALICYLAMIDE] | Not Active | Not Active | Not Active | Not Active | Not Active | Not Active | Not Active | Not Active | Not Active | Not Active | Not Active | Not Active | Not Active | Not Active | Not Active | – |
| Cc1ncc([N+](=O)[O-])n1CC(C)O (stereo not given) [SECNIDAZOLE] | Not Active | Not Active | Not Active | Not Active | Not Active | Not Active | Not Active | Not Active | Not Active | Not Active | Not Active | Not Active | Not Active | Not Active | Not Active | – |
| CN(N=O)C(=O)N[C@@H](C=O)[C@@H](O)[C@H](O)[C@H](O)CO [STREPTOZOCIN] | Not Active | Not Active | Not Active | Not Active | Not Active | Not Active | Not Active | Not Active | Not Active | Not Active | Not Active | Not Active | Not Active | Not Active | Not Active | – |
| CC1CN(c2cc3c(cc2F)c(=O)c(C(=O)O)cn3-c2ccc(F)cc2F)CCN1 (stereo not given) [TEMAFLOXACIN] | Not Active | Not Active | Not Active | Not Active | Not Active | Not Active | Not Active | Not Active | Not Active | Not Active | Not Active | Not Active | Not Active | Not Active | Not Active | – |
| CC(C)[C@H](N)C(=O)OCCOCn1cnc2c(=O)nc(N)[nH]c21 [VALACYCLOVIR] | Not Active | Not Active | Not Active | Not Active | Not Active | Not Active | Not Active | Not Active | Not Active | Not Active | Not Active | Not Active | Not Active | Not Active | Not Active | – |
| IVERMECTIN | Not Active | Not Active | Not Active | Not Active | Not Active | Not Active | Not Active | Not Active | Not Active | Not Active | Not Active | Not Active | – | Not Active | Not Active | Ki (Estrogen receptor): Not Active; Ki (Glucocorticoid receptor): Not Active; Ki (Estrogen receptor beta): Not Active; Ki [2]: Not Active; pIC50 ([3]; read-out: IC50): 5.40; pKi ([3]; read-out: Ki): 5.41 |
